pIC50: −log10 of the molar value. Bounds are passed on as bounds.

This test addresses BRD4 (Homo sapiens, UniProt O60885). In words: Time resolved fluorescence resonance energy transfer (TR-FRET) binding assay, bromodomain BRD4. The note with it: one of the FRET assays described; read-out: FRET BRD4 IC50. A general note: Time-resolved FRET reads energy transfer from a long-lived donor to a nearby acceptor.

One may read the pIC50 as the negative decadic logarithm of the IC50, by convention in mol/L. Consider `Cc1nnn(C)c1-c1cnc2c3c(N(C)C)ncc(Cl)c3n([C@H](c3ccccc3)C3CCOCC3)c2c1` [Example 41, 10-Chloro-5-(dimethyl-1H-1,2,3-triazol-5-yl)-N,N-dimethyl-8-[(S)-oxan-4-yl(phenyl)methyl]-3,8,12-triazatricyclo[7.4.0.0^2,^7]trideca-1(13),2(7),3,5,9,11-hexaen-13-amine], for which the pIC50 was over 9.00.
Turning to `[2H]C([2H])([2H])c1nnn(C)c1-c1cnc2c3ccc(N4C[C@@H](C)N[C@@H](C)C4)nc3n([C@H](c3ccccc3)C3CCOCC3)c2c1` [Example 252, 11-[(3R,5S)-3,5-Dimethylpiperazin-1-yl]-5-[4-(^2H3)methyl-1-methyl-1H-1,2,3-triazol-5-yl]-8-[(S)-oxan-4-yl(phenyl)methyl]-3,8,10-triazatricyclo[7.4.0.0^2,^7]trideca-1(13),2(7),3,5,9,11-hexaene], the negative logarithm of the IC50 (pIC50) is over 9.00.

The values above are taken from patent publication US9725449B2, “Tricyclic compounds as anticancer agents” (BRISTOL-MYERS SQUIBB COMPANY, priority 2015, dated 2017).
